Assay results from patent US20160060260A1, “BROMODOMAIN INHIBITORS FOR TREATING DISEASE” (Board of Regents, The University of Texas System, priority 2014, published 2016).

These compounds were tested against T1, Recombinant human His-tagged Trim24-PHD-bromodomain (Homo sapiens, UniProt O15164) (assay: Trim24 AlphaScreen Assay). Conditions: 5 nM Trim24 protein, 15 nM biotinylated H3K23ac (1-33aa) peptide.
T1 construct: Recombinant human His-tagged Trim24-PHD-bromodomain (produced in-house); made in house
T1 sequence (O15164 824-1006 limits assumed): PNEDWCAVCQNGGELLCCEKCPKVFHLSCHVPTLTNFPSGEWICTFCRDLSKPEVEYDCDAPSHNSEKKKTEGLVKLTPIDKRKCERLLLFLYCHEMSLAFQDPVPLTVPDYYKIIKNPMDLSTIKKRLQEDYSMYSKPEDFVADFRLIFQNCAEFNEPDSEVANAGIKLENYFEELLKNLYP
Type: binding
How it was run: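 AlphaScreen read-out after 2 h with streptavidin donor and Ni-chelate acceptor beads at 10 ug/mL each, following 1 h room-temperature incubation of compound, His-tagged PHD-bromodomain protein and biotin-H3K23ac (1-33aa) peptide in Hepes pH 7.5 buffer with NaCl and Triton X-100. Signals normalised between no-compound and no-protein wells; IC50 from four-parameter logistic curves.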

Row | Structure (SMILES) | IC50
1 | Cn1c(=O)n(C)c2cc(Oc3cccc(OCc4ccccc4)c3)c(NS(=O)(=O)c3cn[nH]c3)cc21 [Example 51, N-(6-(3-(benzyloxy)phenoxy)-1,3-dimethyl-2-oxo-2,3-dihydro-1H-benzo[d]imidazol-5-yl)-1H-pyrazole-4-sulfonamide] | 0.1 to 1 µM
2 | CCCOc1cc(OCCCCN2CCC(O)C2)cc(Oc2cc3c(cc2NS(=O)(=O)c2ccc(OC)c(OC)c2)n(C)c(=O)n3C)c1 (centres unmarked) [Example 247, N-(6-{3-[4-(3-hydroxypyrrolidin-1-yl)butoxy]-5-propoxyphenoxy}-1,3-dimethyl-2-oxo-2,3-dihydro-1H-1,3-benzodiazol-5-yl)-3,4-dimethoxybenzene-1-sulfonamide] | 0.01 to 0.1 µM
3 | Cn1cc(S(=O)(=O)Nc2cc3c(cc2Oc2cccc(OCC(F)(F)F)c2)n(C)c(=O)n3C)cn1 [Example 72, N-(1,3-dimethyl-2-oxo-6-(3-(2,2,2-trifluoroethoxy)phenoxy)-2,3-dihydro-1H-benzo[d]imidazol-5-yl)-1-methyl-1H-pyrazole-4-sulfonamide] | 0.01 to 0.1 µM
4 | CCCOc1ccc(F)c(Oc2cc3c(cc2NS(=O)(=O)c2cn(C)c(C)n2)n(C)c(=O)n3C)c1 [Example 133, N-(6-(2-fluoro-5-propoxyphenoxy)-1,3-dimethyl-2-oxo-2,3-ddihydro-1H-benzo[d]imidazol-5-yl)-1,2-dimethyl-1H-imidazole-4-sulfonamide] | 0.1 to 1 µM
5 | Cc1cccc(S(=O)(=O)Nc2cc3c(cc2Oc2cccc(OCc4ccccc4)c2)n(C)c(=O)n3C)c1 [Example 34, N-(6-(3-(benzyloxy)phenoxy)-1,3-dimethyl-2-oxo-2,3-dihydro-1H-benzo[d]imidazol-5-yl)-3-methylbenzenesulfonamide] | 0.1 to 1 µM
6 | Cn1c(=O)n(C)c2cc(Oc3cccc(OCc4ccccc4)c3)c(NS(=O)(=O)c3ccc(F)cc3)cc21 [Example 15] | > 1 µM
7 | CCn1cc(S(=O)(=O)Nc2cc3c(cc2Oc2cccc(OCc4ccccc4)c2)n(C)c(=O)n3C)cn1 [Example 77, N-(6-(3-(benzyloxy)phenoxy)-1,3-dimethyl-2-oxo-2,3-dihydro-1H-benzo[d]imidazol-5-yl)-1-ethyl-1H-pyrazole-4-sulfonamide] | 0.1 to 1 µM
8 | Cn1c(=O)n(C)c2cc(Oc3cccc(OCc4ccccc4)c3)c(NS(=O)(=O)c3c[nH]cn3)cc21 [Example 78, N-(6-(3-(benzyloxy)phenoxy)-1,3-dimethyl-2-oxo-2,3-dihydro-1H-benzo[d]imidazol-5-yl)-1H-imidazole-4-sulfonamide] | 0.1 to 1 µM
9 | COc1cc(OC)cc(S(=O)(=O)Nc2cc3c(cc2Oc2cccc(OCc4ccccc4)c2)n(C)c(=O)n3C)c1 [Example 44, N-(6-(3-(benzyloxy)phenoxy)-1,3-dimethyl-2-oxo-2,3-dihydro-1H-benzo[d]imidazol-5-yl)-3,5-dimethoxybenzenesulfonamide] | 0.1 to 1 µM
10 | COc1ccc(S(=O)(=O)Nc2cc3c(cc2Oc2cc(OCCCCN)cc(OCC(F)(F)F)c2)n(C)c(=O)n3C)cc1OC [Example 210, N-(6-(3-(4-aminobutoxy)-5-(2,2,2-trifluoroerthoxy)phenoxy)-1,3-dimethyl-2-oxo-2,3-dihydro-1H-benzo[d]imidazol-5-yl)-3,4-dimethoxybenzenesulfonamide] | 0.01 to 0.1 µM
11 | COc1ccc(S(=O)(=O)Nc2cc3c(cc2Oc2cccc(OCc4ccccn4)c2)n(C)c(=O)n3C)cc1OC [Example 29, N-(1,3-dimethyl-2-oxo-6-(3-(pyridin-2-ylmethoxy)phenoxy)-2,3-dihydro-1H-benzo[d]imidazol-5-yl)-3,4-dimethoxybenzenesulfonamide] | 0.1 to 1 µM
12 | COCCOc1cccc(Oc2cc3c(cc2NS(=O)(=O)c2cn(C)c(C)n2)n(C)c(=O)n3C)c1 [Example 53, N-(6-(3-(2-methoxyethoxy)phenoxy)-1,3-dimethyl-2-oxo-2,3-dihydro-1H-benzo[d]imidazol-5-yl)-1,2-dimethyl-1H-imidazole-4-sulfonamide] | 0.1 to 1 µM
13 | COCCCOc1cccc(Oc2cc3c(cc2NS(=O)(=O)c2cn(C)cn2)n(C)c(=O)n3C)c1 [Example 68, N-(6-(3-(3-methoxypropoxy)phenoxy)-1,3-dimethyl-2-oxo-2,3-dihydro-1H-benzo[d]imidazol-5-yl)-1-methyl-1H-imidazole-4-sulfonamide] | 0.1 to 1 µM
14 | C=CCOc1cccc(Oc2cc3c(cc2NS(=O)(=O)c2cn(C)cn2)n(C)c(=O)n3C)c1 [Example 74, N-(6-(3-(allyloxy)phenoxy)-1,3-dimethyl-2-oxo-2,3-dihydro-1H-benzo[d]imidazol-5-yl)-1-methyl-1H-imidazole-4-sulfonamide] | 0.1 to 1 µM
15 | CCn1nccc1S(=O)(=O)Nc1cc2c(cc1Oc1cccc(OCc3ccccc3)c1)n(C)c(=O)n2C [Example 42, N-(6-(3-(benzyloxy)phenoxy)-1,3-dimethyl-2-oxo-2,3-dihydro-1H-benzo[d]imidazol-5-yl)-1-ethyl-1H-pyrazole-5-sulfonamide] | 0.1 to 1 µM

The next lines start with the values.

Row | IC50 | Structure (SMILES)
16 | 0.1 to 1 µM | CC(CO)COc1cccc(Oc2cc3c(cc2NS(=O)(=O)c2cn(C)cn2)n(C)c(=O)n3C)c1 (centres unmarked) [Example 230, N-(6-(3-(3-hydroxy-2-methylpropoxy)phenoxy)-1,3-dimethyl-2-oxo-2,3-dihydro-1H-benzo[d]imidazol-5-yl)-1-methyl-1H-imidazole-4-sulfonamide]
17 | 0.1 to 1 µM | CCCOc1cc(OCCCOC)cc(Oc2cc3c(cc2NS(=O)(=O)c2cc(OC)cc(OC)c2)n(C)c(=O)n3C)c1 [Example 166, 3,5-dimethoxy-N-(6-(3-(3-methoxypropoxy)-5-propoxyphenoxy)-1,3-dimethyl-2-oxo-2,3-dihydro-1H-benzo[d]imidazol-5-yl)benzenesulfonamide]
18 | 0.1 to 1 µM | Cn1c(=O)n(C)c2cc(Oc3cccc(OCC(F)(F)F)c3)c(NS(=O)(=O)C3CCOC3)cc21 (centres unmarked) [Example 95, N-(1,3-dimethyl-2-oxo-6-(3-(2,2,2-trifluoroethoxy)phenoxy)-2,3-dihydro-1H-benzo[d]imidazol-5-yl)tetrahydrofuran-3-sulfonamide]
19 | 0.01 to 0.1 µM | COc1ccc(S(=O)(=O)Nc2cc3c(cc2Oc2cccc(OCC4CC4)c2)n(C)c(=O)n3C)cc1OC [Example 127, N-(6-(3-(cyclopropylmethoxy)phenoxy)-1,3-dimethyl-2-oxo-2,3-dihydro-1H-benzo[d]imidazol-5-yl)-3,4-dimethoxybenzenesulfonamide]
20 | 0.01 to 0.1 µM | CCCOc1cc(OCCCCN)cc(Oc2cc3c(cc2NS(=O)(=O)c2cn(C)c(C)n2)n(C)c(=O)n3C)c1 [Example 214]
21 | 0.01 to 0.1 µM | CCCOc1cc(OCCCOC)cc(Oc2cc3c(cc2NS(=O)(=O)c2cn(C)c(C)n2)n(C)c(=O)n3C)c1 [Example 94, N-(6-(3-(3-methoxypropoxy)-5-propoxyphenoxy)-1,3-dimethyl-2-oxo-2,3-dihydro-1H-benzo[d]imidazol-5-yl)-1,2-dimethyl-1H-imidazole-4-sulfonamide]
22 | 0.01 to 0.1 µM | COC(=O)c1cccc(S(=O)(=O)Nc2cc3c(cc2Oc2cccc(OCC(F)(F)F)c2)n(C)c(=O)n3C)c1 [Example 192, methyl 3-(N-(1,3-dimethyl-2-oxo-6-(3-(2,2,2-trifluoroethoxy)phenoxy)-2,3-dihydro-1H-benzo[d]imidazol-5-yl)sulfamoyl)benzoate]
23 | 0.01 to 0.1 µM | COCCCOc1cc(OCC(F)(F)F)cc(Oc2cc3c(cc2NS(=O)(=O)c2cnn(C)c2C)n(C)c(=O)n3C)c1 [Example 204, N-(6-(3-(3-methoxypropoxy)-5-(2,2,2-trifluoroethoxy)phenoxy)-1,3-dimethyl-2-oxo-2,3-dihydro-1H-benzo[d]imidazol-5-yl)-1,5-dimethyl-1H-pyrazole-4-sulfonamide]
24 | 0.1 to 1 µM | CCCOc1cccc(Oc2cc3c(cc2NS(=O)(=O)C2CC2)n(C)c(=O)n3C)c1 [Example 82, N-(1,3-dimethyl-2-oxo-6-(3-propoxyphenoxy)-2,3-dihydro-1H-benzo[d]imidazol-5-yl)cyclopropanesulfonamide]
25 | 0.001 to 0.01 µM | Cc1c(S(=O)(=O)Nc2cc3c(cc2Oc2cc(OCCCCCCN)cc(OCC(F)(F)F)c2)n(C)c(=O)n3C)cnn1C [Example 200, N-(6-(3-((6-aminohexyl)oxy)-5-(2,2,2-trifluoroethoxy)phenoxy)-1,3-dimethyl-2-oxo-2,3-dihydro-1H-benzo[d]imidazol-5-yl)-1,5-dimethyl-1H-pyrazole-4-sulfonamide]
26 | 0.1 to 1 µM | CCCOc1cc(OCCCCCCN)cc(Oc2cc3c(cc2N(C)S(=O)(=O)c2ccc(OC)c(OC)c2)n(C)c(=O)n3C)c1 [Example 245, N-(6-(3-((6-aminohexyl)oxy)-5-propoxyphenoxy)-1,3-dimethyl-2-oxo-2,3-dihydro-1H-benzo[d]imidazol-5-yl)-3,4-dimethoxy-N-methylbenzenesulfonamide]
27 | 0.1 to 1 µM | CCCOc1cc(OCCCOC)cc(Oc2cc3c(cc2NS(=O)(=O)c2cccc(C)c2)n(C)c(=O)n3C)c1 [Example 155, N-(6-(3-(3-methoxypropoxy)-5-propoxyphenoxy)-1,3-dimethyl-2-oxo-2,3-dihydro-1H-benzo[d]imidazol-5-yl)-3-methylbenzenesulfonamide]
28 | 0.01 to 0.1 µM | Cn1cnc(S(=O)(=O)Nc2cc3c(cc2Oc2cc(OCC4CC4)cc(OCC4CC4)c2)n(C)c(=O)n3C)c1 [Example 117, N-(6-(3,5-bis(cyclopropylmethoxy)phenoxy)-1,3-dimethyl-2-oxo-2,3-dihydro-1H-benzo[d]imidazol-5-yl)-1-methyl-1H-imidazole-4-sulfonamide]
29 | 0.01 to 0.1 µM | CCCOc1cccc(Oc2cc3c(cc2NS(=O)(=O)c2cccnc2)n(C)c(=O)n3C)c1 [Example 99, N-(1,3-dimethyl-2-oxo-6-(3-propoxyphenoxy)-2,3-dihydro-1H-benzo[d]imidazol-5-yl)pyridine-3-sulfonamide]
